Results: patent publication US10894777B2, “TG2 inhibitor piperazine compounds and uses thereof” (UNIVERSITY OF OTTAWA, priority 2016, dated 2021)

Legend:
TG3a = target: T1, TG3a (Homo sapiens, UniProt Q08188); test: Fluorescence isopeptidase activity assay (A101 probe), TG3a; type: biochemical
T1 construct: purchased Zedira
Description: Selectivity of certain irreversible inhibitors over other members of the transglutaminase family was assessed. […] Inhibitors were tested using a continuous colorimetric assay (Leblanc, A. et al., Biochemistry (2001), 40 (28): 8335-8342) for hTG1 and hTG6 and a commercially available continuous fluorescent assay that utilizes a peptidic FRET quenched substrate (Oertel, K. et al., Anal. Biochem. (2007), 367 (2): 152-158; Király, R. et al., Amino Acids (2016), 48 (1): 31-40) for the other transglutaminases, FXIIIa and hTG3. The rate constant of enzyme inactivation (kobs) for a specific concentration of inhibitor was obtained using Kitz and Wilson conditions (Kitz, R. et al., J. Biol. Chem. (1962), 237: 3245-49). Inhibitor concentrations were adjusted to account for competition with substrates in each enzymatic reaction.
Fluorescence isopeptidase activity assay. The isopeptidase activity of pre-activated TG3a and FXIIIa (purchased from Zedira) was measured via a fluorescence-based assay (Király, R. et al., Amino Acids (2016), 48 (1): 31-40) using the commercially available peptidic FRET quenched probe A101 from Zedira. Briefly, the final concentration in the reaction mixture contained 50 mM Tris (pH 7.0), 10 mM CaCl2, 100 mM NaCl, 2.8 mM TCEP, 50 μM A101 and 14 mM H-Gly-OMe. The reaction was monitored at 25° C. using a BioTek Synergy 4 plate reader (Ex/Em: 318/413 nm).

[1] = tested on: ECS cells (derived from SCC-13) tumors; test: Tumor xenograft growth assay, SCC-13-derived ECS cells in NSG mice; type: in vivo
Description: In (A), SCC13-Control-shRNA and SCC13-TG2-shRNA2 cells were double electroporated with empty vector (EV) or YAP(S127A)-encoding vector and at 48 h post-electroporation lysates were collected for immunoblot. In (B), (C), and (D), the indicated cell lines were electroporated with EV or YAP(S127A)-encoding vector and then plated for spheroid formation, invasion and migration assay. In (E) and (F), ECS cells (100,000 cells derived from SCC-13) were injected into each front flank in NSG mice. At 1 d post injection, the mice were treated with 0 or 20 mg NC9 per kg body weight delivered in 200 μl by gavage three times per week. Images represent appearance and size of typical control and NC9 treated tumors harvested on week four. In (G), tumors were harvested at 4 wk and extracts were prepared for assay of indicated proteins. Blots from two representative tumors are shown. In (H), a proposed TG2 signaling scheme is shown. TG2 interacts with α6/β4 integrin to enhance integrin (FAK/Src) signaling which increases PI3K/PDK1 activity and PDK suppresses activity in the Hippo signaling cascade (LATS1). This leads to reduced LATS1 phosphorylation of YAP1 which then interacts with and stabilizes ΔNp63α. […]
Tumor xenograft growth assay. […] Tumor growth was monitored by measuring tumor diameter and calculating tumor volume=4/3π×(diameter/2)^3 (Streit, M. et al., Am. J. Pathol. 155:441-52, 1999). […]

TG2 = target: T2, TG2 (Homo sapiens, UniProt P21980); test: In vitro GTP binding assay after inhibition of hTG2 (BODIPY GTP-γ-S); settings: inhibitor 2×KI, 30 min; 3 μM GTP-γ-S FL BODIPY
T2 sequence (P21980 1-687): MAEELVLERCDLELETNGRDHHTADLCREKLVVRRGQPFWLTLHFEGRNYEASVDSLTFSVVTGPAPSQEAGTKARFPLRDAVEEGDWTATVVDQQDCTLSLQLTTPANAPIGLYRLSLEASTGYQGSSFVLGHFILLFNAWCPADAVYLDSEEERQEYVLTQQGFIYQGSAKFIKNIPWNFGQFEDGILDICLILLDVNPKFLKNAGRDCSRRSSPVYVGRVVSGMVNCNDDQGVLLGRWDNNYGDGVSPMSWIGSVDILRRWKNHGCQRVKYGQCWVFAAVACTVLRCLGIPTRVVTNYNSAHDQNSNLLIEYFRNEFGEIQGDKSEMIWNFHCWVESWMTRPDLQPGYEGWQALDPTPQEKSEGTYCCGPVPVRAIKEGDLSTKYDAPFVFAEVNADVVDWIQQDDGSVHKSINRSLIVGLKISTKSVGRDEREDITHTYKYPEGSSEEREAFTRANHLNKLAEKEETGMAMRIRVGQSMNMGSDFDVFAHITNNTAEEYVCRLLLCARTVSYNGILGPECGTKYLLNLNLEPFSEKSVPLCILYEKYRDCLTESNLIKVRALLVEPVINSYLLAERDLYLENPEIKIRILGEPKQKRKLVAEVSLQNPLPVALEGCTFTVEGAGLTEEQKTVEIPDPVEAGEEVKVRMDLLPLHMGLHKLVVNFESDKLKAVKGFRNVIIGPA
Description: In vitro GTP binding assay. GTP binding was measured using a method similar to that reported previously (McEwen, D. P. et al., Anal. Biochem. (2001), 291 (1): 109-117). […] The buffer was then exchanged to 100 mM MOPS (pH=7.0), 1 mM EGTA and 5 mM MgCl2 to remove calcium using a 10-kDa molecular weight cut off membrane. The fluorescent GTP analog was then added to give a final concentration of 3.0 μM and fluorescence was then measured on a microplate reader after 10 minutes of incubation (Ex/Em: 490/520 nm).

T1 sequence (Q08188 2-467 limits assumed): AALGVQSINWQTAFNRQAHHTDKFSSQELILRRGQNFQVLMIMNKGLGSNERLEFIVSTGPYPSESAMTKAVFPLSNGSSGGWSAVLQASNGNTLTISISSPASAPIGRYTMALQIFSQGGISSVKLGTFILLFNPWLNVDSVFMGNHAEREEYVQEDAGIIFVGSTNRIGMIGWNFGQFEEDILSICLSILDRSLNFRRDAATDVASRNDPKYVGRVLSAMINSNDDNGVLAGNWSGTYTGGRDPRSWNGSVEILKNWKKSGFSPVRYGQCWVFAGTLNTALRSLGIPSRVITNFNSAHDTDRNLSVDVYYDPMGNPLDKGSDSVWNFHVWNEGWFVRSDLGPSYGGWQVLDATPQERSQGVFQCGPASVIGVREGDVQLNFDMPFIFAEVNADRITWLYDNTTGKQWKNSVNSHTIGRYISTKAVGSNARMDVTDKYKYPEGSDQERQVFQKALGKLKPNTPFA
T1 sequence (Q08188 468-693 partner limits assumed): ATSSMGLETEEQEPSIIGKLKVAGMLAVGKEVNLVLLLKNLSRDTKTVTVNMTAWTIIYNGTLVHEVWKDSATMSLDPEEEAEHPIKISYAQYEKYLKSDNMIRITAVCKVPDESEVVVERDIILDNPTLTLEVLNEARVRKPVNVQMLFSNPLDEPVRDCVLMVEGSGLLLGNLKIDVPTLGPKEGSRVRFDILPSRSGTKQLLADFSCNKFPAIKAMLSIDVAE

Compound	kobs (10^−3 min^−1), TG3a (TG3a; Table 9, Kitz and Wilson conditions)	selectivity towards hTG2 over hTG3a (TG3a; from kobs)	tumor formation ([1]; 20 mg/kg body weight, three times per week, 4 wk)	integrin and Hippo signaling in tumor extracts ([1]; 20 mg/kg, tumors harvested at 4 wk)	GTP binding of hTG2 after incubation with inhibitor (TG2)
C=CC(=O)NCCCC[C@H](NC(=O)OCc1ccccc1)C(=O)NCCOCCOCCNS(=O)(=O)c1cccc2c(N(C)C)cccc12 [NC9]	1.01 ± 0.09 10^−3 min^−1	about 390 fold	markedly suppressed tumor formation	reduced integrin-04 level, and FAK and Src activity, and increased LATS1-P and YAP-P	
C=CC(=O)NCCCC[C@H](NC(=O)OCc1ccccc1)C(=O)N1CCN(S(=O)(=O)c2cccc3c(N(C)C)cccc23)CC1 [VA4, (S)-benzyl(6-acrylamido-1-(4-((5-(dimethylamino)naphthalen-1-yl)sulfonyl)piperazin-1-yl)-1-oxohexan-2-yl)carbamate]					abolish GTP binding nearly completely
